According to patent US20220142977A1, “METHODS OF TREATING CONDITIONS RELATED TO THE S1P1 RECEPTOR” (ARENA PHARMACEUTICALS, INC., priority 2019, published 2022):
Counter-ions that a name gives are not always drawn.

Columns and labels:
[1] = test system: patients with moderate to severe ulcerative colitis; experiment: Randomized, double-blind, placebo-controlled dose-ranging study in ulcerative colitis: efficacy (Mayo scores, endoscopic improvement, remission); assay type: in vivo, human; conditions: for improvement in 2-component Mayo Score (0 to 6) relative to placebo / improvement in Total Mayo Score (0 to 12) relative to placebo: Week 12
Method: A randomized, double-blind, placebo-controlled, parallel-group, dose-ranging study to assess safety and efficacy of two orally administered doses (1 mg and 2 mg) of Compound 1 in patients with ulcerative colitis was conducted. The table below provides a summary of demographic data by treatment group.
Patients were randomized into a double-blind, placebo-controlled study to receive once daily (q.d.) doses of the L-arginine salt of Compound 1 (1 mg or 2 mg) or matching placebo in a 1:1:1 ratio for 12 weeks. The trial enrolled 156 patients with moderate to severe ulcerative colitis (3-component Mayo score of 4-9 that includes endoscopic subscore ≥2, rectal bleeding score ≥1).
The treatment formulation was composed of immediate-release, hard gelatin capsules containing L-arginine salt of Compound 1. The placebo was composed of hard gelatin capsules containing microcrystalline cellulose.
Patients were instructed to take their capsule on an empty stomach (overnight fast of approximately 8 hours) and to avoid eating for approximately 1 hour after dosing.
The primary objective of this proof-of-concept study was to determine the effect of treatment with the L-arginine salt of Compound 1 in changing 3-component Mayo Clinic score (score ranging from 0 to 9, including stool frequency, rectal bleeding and findings on endoscopy) at 12 weeks.
Secondary endpoints were the proportion of patients who achieve endoscopic improvement at Week 12; change in 2-component Mayo Score (score ranging from 0 to 6, including rectal bleeding and findings on endoscopy) at Week 12; and change in Total Mayo Score (score ranging from 0 to 12, including stool frequency, rectal bleeding, findings on endoscopy, and physician global assessment) at Week 12.
Exploratory endpoints included change from baseline in lymphocyte counts at Weeks 1, 2, 4, 8, and 12; proportion of patients achieving clinical remission at Week 12; and proportion of patients who achieve clinical response at Week 12.
ANCOVA model, adjusted for current oral corticosteroid use, prior exposure to TNF-alpha antagonists, and baseline value, was used to estimate changes in Mayo Clinic Score. Mantel-Haenszel method (estimated treatment difference by adjusting current oral corticosteroid use and prior exposure to TNF-alpha antagonists) used to estimate proportion difference for dichotomous parameters. Missing individual Mayo subscores impacting efficacy measures were imputed using multiple imputation methodology with observed case analysis for sensitivity. Statistical testing was pre-specified as one-sided with p<0.025 reflecting conventional statistical significance. Hierarchical closed testing procedure for primary and secondary endpoints at 0.05 alpha level was used.

[2] = test system: patients with moderate to severe ulcerative colitis; experiment: Same study: safety and tolerability (TEAEs, heart rate, AV conduction, LFTs, infections); assay type: in vivo, human

Structure (SMILES)	improvement in individuals with prior vedolizumab use or a history of pancolitis (subgroup analyses) ([1]; subgroups, 2 mg, week 12 (FIGS. 3A-3D))	improvement in 3-component Partial Mayo Score (0 to 9) relative to placebo ([1]; 1 mg q.d. oral, week 12, p=0.146, not significant)	improvement in 2-component Mayo Score (0 to 6) relative to placebo ([1]; 1 mg, p=0.086, not significant)	improvement in Total Mayo Score (0 to 12) relative to placebo ([1]; 1 mg, p=0.128, not significant)	improvement in 3-component Partial Mayo Score (0 to 9) relative to placebo ([1]; 2 mg q.d. oral, week 12, p=0.009)	improvement in Total Mayo Score (0 to 12) relative to placebo ([1]; 2 mg, p=0.010)	improvement in 2-component Mayo Score (0 to 6) relative to placebo ([1]; dose not printed (2 mg implied), p=0.002)	primary and all secondary endpoints ([1]; high dose (2 mg), week 12)	serious adverse events (SAEs), % of patients ([2]; 2 mg, placebo 11.1%) [%]	heart rate on hourly ECGs (in words) ([2]; Day 1, both 1 mg and 2 mg groups)	mean change in heart rate on hourly ECGs ([2]; Day 1, either group (1 mg, 2 mg), any timepoint) [bpm]	severity of adverse events in infections and infestations ([2]; assessed by investigators, majority upper respiratory tract infections)	increases in liver function tests (LFTs) compared to placebo ([2]; in vivo)	reports of macular edema ([2]; in vivo)	reports of pulmonary function test abnormalities ([2]; in vivo)	serious adverse events related to heart rate changes or AV block ([2]; in vivo)	discontinuations from study related to bradycardia or AV block ([2]; throughout the study)	impact on heart rate and AV conduction ([2]; throughout the study)
O=C(O)C[C@H]1CCc2c1[nH]c1ccc(OCc3ccc(C4CCCC4)c(C(F)(F)F)c3)cc21 [Compound 1, (R)-2-(7-(4-cyclopentyl-3-(trifluoromethyl)benzyloxy)-1,2,3,4-tetrahydrocyclopenta[b]indol-3-yl)acetic acid]	improvement is not seen	–	–	–	–	–	–	–	–	–	–	–	–	–	–	–	–	–
O=C(O)C[C@H]1CCc2c1[nH]c1ccc(OCc3ccc(C4CCCC4)c(C(F)(F)F)c3)cc21 [L-arginine salt of Compound 1]	–	0.43	0.39	0.60	0.99	1.27	0.84	achieved the primary and all secondary endpoints with statistical significance	0	mild decrease	< 10	mild or moderate	no increases	no reports	no reports	No serious adverse events	no discontinuations	low
